The results in this text go back to patent US7329678B2, “Chemical compounds” (SmithKline Beecham Corporation, priority 2003, dated 2008).

Structures can show the parent of a compound that is named as a salt. Bounds are passed on as bounds.

The assay addresses T1, Serum Glucocorticoid-regulated Kinase-1 (SGK-1) (Homo sapiens, UniProt O00141, S422D).
T1 construct: a truncated form of the human enzyme that included amino acids 61-431; 6xHis (N); made in house
T1 sequence (O00141 61-431 S422D): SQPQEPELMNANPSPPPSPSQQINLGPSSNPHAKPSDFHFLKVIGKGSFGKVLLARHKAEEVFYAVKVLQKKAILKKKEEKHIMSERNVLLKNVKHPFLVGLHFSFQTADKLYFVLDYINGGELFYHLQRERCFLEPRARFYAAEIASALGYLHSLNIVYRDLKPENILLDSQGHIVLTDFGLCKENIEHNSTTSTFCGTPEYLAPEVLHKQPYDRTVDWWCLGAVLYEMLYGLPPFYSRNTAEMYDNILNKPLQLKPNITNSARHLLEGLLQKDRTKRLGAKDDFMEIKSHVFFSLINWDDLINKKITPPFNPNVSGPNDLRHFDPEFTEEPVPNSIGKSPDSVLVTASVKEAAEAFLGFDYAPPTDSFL
Description: SGK-1 Enzyme Assay (SGK1e), substrate phosphorylation, scintillation proximity. The format is biochemical. The conditions noted are these: truncated human SGK-1 (aa 61-431, S422D), 10 μM ATP, Crosstide substrate. How it is done:
SGK-1 Enzyme Assay (SGK1e):
Compounds of the present invention were tested for Serum Glucocorticoid-regulated Kinase-1 (SGK-1) protein serine/threonine kinase inhibitory activity in substrate phosphorylation assays using enzyme purified from a baculovirus expression vector system. The recombinant baculovirus was made to express the intracellular domain of SGK-1 (GenBank accession number AAD41091). The virus expressed a truncated form of the human enzyme that included amino acids 61-431. Serine 422 was replaced with Aspartic acid to activate the enzyme, and 6 Histidine residues were added at the amino terminus to facilitate purification. The protein was purified using Ni-NTA agarose affinity chromatography. The peptide substrate was an N-terminal biotinylated synthetic peptide named Crosstide (biotin-Ahx-GRPRTSSFAEG-OH), corresponding to the sequence in GSK3 surrounding the serine phosphorylated by MAPKAP Kinase-1/Rsk and p70 S6 Kinase.
The method measures the ability of the isolated enzyme to catalyze the transfer of the γ-phosphate from ATP onto serine/threonine residues in the biotinylated Crosstide. Reactions were performed in 96-well polystyrene round-bottom plates in a final volume of 30 μL. Reaction mixtures contained 62.5 mM HEPES (pH 7.4), 10 mM MgCl2, 0.1 mM EDTA, 0.0024% TWEEN-20, and 1 mM DTT (added fresh daily), 10 μM ATP, 0.2 μCi [[ν-^33P] ATP per reaction, 4 μM Crosstide peptide substrate, and 1 nM SGK1 enzyme. Reactions were initiated by adding the indicated enzyme. The reaction was allowed to proceed for 2 hours, then terminated by the addition of 50 mM EDTA and quantified using a scintillation proximity assay procedure as described (McDonald, O. B., Antonsson, B., Arkinstal, S., Marshall, C. J., and Wood, E. R. (1999) Analytical Biochemistry, 268, 318-329).
Compounds under analysis were dissolved in Me2SO to 1 mM and serially diluted 1 to 3 with Me2SO through eleven columns of a 96 well plate. 1 μL of each concentration was transferred to the corresponding well of the assay plate. This created a final compound concentration range from 0.56 nM to 33.3 μM.
The data for dose responses were plotted as % Control calculated with the data reduction formula 100*(U1−C2)/(C1−C2) versus concentration of compound and fitted to the curve described by: y=((Vmax*x)/(K+x)) where Vmax is the upper asymptote and K is the IC50.
For orientation: Scintillation proximity formats need no separation of bound from free tracer.

With `COc1cccc(-c2cnc(N)c(-c3nc4cc(Cl)c(F)cc4[nH]3)c2)c1` [Example 11, 3-(5-chloro-6-fluoro-1H-benzimidazol-2-yl)-5-(3-methoxyphenyl)pyridin-2-amine hydrochloride], the IC50 – broadly, the midpoint of a concentration-inhibition curve – was less than 1000 nM.
Under `Nc1ncc(-c2ccc(F)cc2)cc1-c1nc2ccc(S(N)(=O)=O)cc2[nH]1` [Example 14, 2-[2-amino-5-(4-fluorophenyl)pyridin-3-yl]-1H-benzimidazole-6-sulfonamide] stands less than 1000 nM; under `Nc1ncc(-c2ccccc2)cc1-c1nc2ccccc2[nH]1` [Example 1, 3-(1H-benzimidazol-2-yl)-5-phenylpyridin-2-amine hydrochloride], less than 1000 nM.
Under `Cc1cccc2[nH]c(-c3cc(-c4ccc(F)cc4)cnc3N)nc12` [Example 17, 5-(4-fluorophenyl)-3-(4-methyl-1H-benzimidazol-2-yl)pyridin-2-amine] stands less than 1000 nM.
Under `Nc1ncc(-c2ccccc2)cc1-c1nc2ccc(S(N)(=O)=O)cc2[nH]1` [Example 4, 2-(2-amino-5-phenylpyridin-3-yl)-1H-benzimidazole-6-sulfonamide hydrochloride] stands less than 1000 nM.
As to `COC(=O)c1ccc2nc(-c3cc(-c4cccc(OC)c4)cnc3N)[nH]c2c1` [Example 7, Methyl 2-[2-amino-5-(3-methoxyphenyl)pyridin-3-yl]-1H-benzimidazole-6-carboxylate hydrochloride], the IC50 was less than 1000 nM.
